Source: US4619925A, “3-Propenyl cephalosporin derivatives” (priority 1985, dated 1986)
≈ marks a conversion by molar mass, not a printed value. Read-outs that look alike come from different tables or passages of the source.

Assays:
E. coli Juhl [1] = experiment: Protective dose for mice infected with lethal inoculum; assay type: in vivo; details: 50% survival after five days
From the text: (§1) The data in Table 2 are results of protective doses (PD50) for mice infected with a lethal inoculum of bacteria. Two different bacteria were employed in the studies, one a Gram-positive organism (S. aureus Smith) and the other a Gram-negative organism (E. coli Juhl). The PD50 is that dose which, when administered to a group of injected mice, results in 50% survival after five days. Normally untreated infected mice die within three days following injection of the lethal inoculum.

S. aureus Smith [2] = experiment: as above; assay type: in vivo; details: po, 50% survival after five days
From the text: as §1

Mouse urinary recovery = assay type: in vivo, mice; details: mouse, urine, po, 20 mg/kg; for dose excreted at 24 h: p.o.
S. aureus A9497 = experiment: MIC, agar dilution technique (Mueller-Hinton Agar); assay type: cell-based; details: Staphylococcus aureus, Gp-Ia, penicillin sensitive, read-out: Minimum Inhibitory Concentration
From the text: (§2) Each of these groups of organisms is constituted of five individual strains of microorganism. The Gp-Ia organisms are Gram-positive staphylococci which are sensitive to penicillin. The Gp-Ib organisms are Gram-positive staphylococci which are resistant to penicillin and produce penicillinase. The Gn-Ia organisms are Gram-negative bacteria which are sensitive to ampicillin and cephalothin. The Gn-Ib organisms are Gram-negative bacteria which are resistant to ampicillin and cephalothin.

S. aureus A9602 = experiment: MIC, agar dilution technique (Mueller-Hinton Agar); assay type: cell-based; details: Staphylococcus aureus, A9602, read-out: Minimum Inhibitory Concentration
From the text: as §2

E. coli A20341-1 = experiment: MIC, agar dilution technique (Mueller-Hinton Agar); assay type: cell-based; details: Escherichia coli, A203411, read-out: Minimum Inhibitory Concentration
From the text: as §2

S. aureus A9534 = experiment: MIC, agar dilution technique (Mueller-Hinton Agar); assay type: cell-based; details: Staphylococcus aureus, Gp-Ia, penicillin sensitive, read-out: Minimum Inhibitory Concentration
From the text: as §2

S. aureus A15092 = experiment: MIC, agar dilution technique (Mueller-Hinton Agar); assay type: cell-based; details: Staphylococcus aureus, Gp-Ib, penicillin resistant, read-out: Minimum Inhibitory Concentration
From the text: as §2

E. coli A9660 = experiment: MIC, agar dilution technique (Mueller-Hinton Agar); assay type: cell-based; details: Escherichia coli, A9660, read-out: Minimum Inhibitory Concentration
From the text: as §2

E. coli Juhl [3] = experiment: MIC, agar dilution technique (Mueller-Hinton Agar); assay type: cell-based; details: Escherichia coli, read-out: Minimum Inhibitory Concentration
From the text: as §2

S. aureus BX-1633-2 = experiment: MIC, agar dilution technique (Mueller-Hinton Agar); assay type: cell-based; details: Staphylococcus aureus, BX16332, read-out: Minimum Inhibitory Concentration
From the text: as §2

K. pneumoniae A20346 = experiment: MIC, agar dilution technique (Mueller-Hinton Agar); assay type: cell-based; details: Klebsiella pneumoniae, A20346, read-out: Minimum Inhibitory Concentration
From the text: as §2

E. coli A15148 = experiment: MIC, agar dilution technique (Mueller-Hinton Agar); assay type: cell-based; details: Escherichia coli, A15148, read-out: Minimum Inhibitory Concentration
From the text: as §2

K. pneumoniae D11 = experiment: MIC, agar dilution technique (Mueller-Hinton Agar); assay type: cell-based; details: Klebsiella pneumoniae, D11, read-out: Minimum Inhibitory Concentration
From the text: as §2

S. aureus Terajima = experiment: MIC, agar dilution technique (Mueller-Hinton Agar); assay type: cell-based; details: Staphylococcus aureus, Gp-Ia, penicillin sensitive, read-out: Minimum Inhibitory Concentration
From the text: as §2

S. aureus Russell = experiment: MIC, agar dilution technique (Mueller-Hinton Agar); assay type: cell-based; details: Staphylococcus aureus, read-out: Minimum Inhibitory Concentration
From the text: as §2

E coli RGN-823 = experiment: MIC, agar dilution technique (Mueller-Hinton Agar); assay type: cell-based; details: Escherichia coli, RGN823, Gn-Ib, ampicillin and cephalothin resistant, read-out: Minimum Inhibitory Concentration
From the text: as §2

S. aureus No. 193 = experiment: MIC, agar dilution technique (Mueller-Hinton Agar); assay type: cell-based; details: Staphylococcus aureus, Gp-Ib, penicillin resistant, read-out: Minimum Inhibitory Concentration
From the text: as §2

S. aureus Smith [4] = experiment: MIC, agar dilution technique (Mueller-Hinton Agar); assay type: cell-based; details: Staphylococcus aureus, Gp-Ia, penicillin sensitive, read-out: Minimum Inhibitory Concentration
From the text: as §2

N. gonorrheae A20154 = experiment: In vitro activity against fastidious bacteria; assay type: cell-based
From the text: (§3) Table 5 contains comparative data for in vitro antibacterial activity against fastidious bacteria.

N. gonorrheae A20143 = experiment: In vitro activity against fastidious bacteria; assay type: cell-based
From the text: as §3

H. influenzae A22482 = experiment: In vitro activity against fastidious bacteria; assay type: cell-based; details: Haemophilus influenzae, A22482
From the text: as §3

S. pneumoniae A20759 = experiment: In vitro activity against fastidious bacteria; assay type: cell-based; details: Streptococcus pneumoniae, A20759
From the text: as §3

N. gonorrheae A20155 = experiment: In vitro activity against fastidious bacteria; assay type: cell-based
From the text: as §3

H. influenzae A20177 = experiment: In vitro activity against fastidious bacteria; assay type: cell-based; details: Haemophilus influenzae, A20177
From the text: as §3

S. pneumoniae Type II = experiment: In vitro activity against fastidious bacteria; assay type: cell-based; details: Streptococcus pneumoniae
From the text: as §3

N. meningitidis A21497 = experiment: In vitro activity against fastidious bacteria; assay type: cell-based; details: Neisseria meningitidis, A21497
From the text: as §3

S. pyogenes Dick = experiment: In vitro activity against fastidious bacteria; assay type: cell-based; details: Streptococcus pyogenes
From the text: as §3

N. meningitidis A20048 = experiment: In vitro activity against fastidious bacteria; assay type: cell-based; details: Neisseria meningitidis, A20048
From the text: as §3

S. pyogenes A20065 = experiment: In vitro activity against fastidious bacteria; assay type: cell-based; details: Streptococcus pyogenes, A20065
From the text: as §3

N. meningitidis A21487 = experiment: In vitro activity against fastidious bacteria; assay type: cell-based; details: Neisseria meningitidis, A21487
From the text: as §3

N. gonorrheae A15112 = experiment: In vitro activity against fastidious bacteria; assay type: cell-based
From the text: as §3

S. pyogenes A9604 = experiment: In vitro activity against fastidious bacteria; assay type: cell-based; details: Streptococcus pyogenes, A9604
From the text: as §3

S. pneumoniae A15069 = experiment: In vitro activity against fastidious bacteria; assay type: cell-based; details: Streptococcus pneumoniae, A15069
From the text: as §3

N. meningitidis A21495 = experiment: In vitro activity against fastidious bacteria; assay type: cell-based; details: Neisseria meningitidis, A21495
From the text: as §3

H. influenzae A21523 = experiment: In vitro activity against fastidious bacteria; assay type: cell-based; details: Haemophilus influenzae, A21523
From the text: as §3

S. pyogenes A20201 = experiment: In vitro activity against fastidious bacteria; assay type: cell-based; details: Streptococcus pyogenes, A20201
From the text: as §3

H. influenzae A20193 = experiment: In vitro activity against fastidious bacteria; assay type: cell-based; details: Haemophilus influenzae, A20193
From the text: as §3

H. influenzae A9833 = experiment: In vitro activity against fastidious bacteria; assay type: cell-based; details: Haemophilus influenzae, A9833
From the text: as §3

S. pyogenes s-23 = experiment: In vitro activity against fastidious bacteria; assay type: cell-based; details: Streptococcus pyogenes, S23
From the text: as §3

S. pneumoniae A9585 = experiment: In vitro activity against fastidious bacteria; assay type: cell-based; details: Streptococcus pneumoniae, A9585
From the text: as §3

S. pyogenes A15040 = experiment: In vitro activity against fastidious bacteria; assay type: cell-based; details: Streptococcus pyogenes, A15040
From the text: as §3

H. influenzae A9729 = experiment: In vitro activity against fastidious bacteria; assay type: cell-based; details: Haemophilus influenzae, A9729
From the text: as §3

H. influenzae A22483 = experiment: In vitro activity against fastidious bacteria; assay type: cell-based; details: Haemophilus influenzae, A22483
From the text: as §3

N[C@@H](C(=O)N[C@@H]1C(=O)N2C(C(=O)O)=C(Cl)CS[C@H]12)c1ccccc1 [cefaclor]
PD50 (protective dose) (E. coli Juhl [1]; im): 0.8 | PD50 (protective dose) (E. coli Juhl [1]; po): 1.1 | PD50 (protective dose) (S. aureus Smith [2]): 0.20 | dose excreted at 2 h (Mouse urinary recovery; 0-2 hr): 60% | dose excreted at 4 h (Mouse urinary recovery; 2-4 hr): 6.7% | dose excreted at 6 h (Mouse urinary recovery; 4-6 hr): 0.3% | dose excreted at 24 h (Mouse urinary recovery; 6-24 hr, read-out: Mouse urinary recovery 6-24 hr): 1.5% | dose excreted at 24 h (Mouse urinary recovery; total, read-out: Mouse urinary recovery Total): 69% | MIC (S. aureus A9497): 0.8 µg/mL (≈ 2.18 µM) | MIC (S. aureus A9602): 3.1 µg/mL (≈ 8.43 µM) | MIC (E. coli A20341-1): 6.3 µg/mL (≈ 17.1 µM) | MIC (S. aureus A9534): 0.8 µg/mL (≈ 2.18 µM) | MIC (S. aureus A15092): 6.3 µg/mL (≈ 17.1 µM) | MIC (E. coli A9660): 0.8 µg/mL (≈ 2.18 µM) | MIC (E. coli Juhl [3]): 0.8 µg/mL (≈ 2.18 µM) | MIC (S. aureus BX-1633-2): 6.3 µg/mL (≈ 17.1 µM) | MIC (K. pneumoniae A20346): 6.3 µg/mL (≈ 17.1 µM) | MIC (E. coli A15148): 25 µg/mL (≈ 68 µM) | MIC (K. pneumoniae D11): 0.8 µg/mL (≈ 2.18 µM) | MIC (S. aureus Terajima): 0.4 µg/mL (≈ 1.09 µM) | MIC (S. aureus Russell): 3.1 µg/mL (≈ 8.43 µM) | MIC (E coli RGN-823): 25 µg/mL (≈ 68 µM) | MIC (S. aureus No. 193): 6.3 µg/mL (≈ 17.1 µM) | MIC (S. aureus Smith [4]): 0.8 µg/mL (≈ 2.18 µM) | MIC (N. gonorrheae A20154): 0.8 µg/mL (≈ 2.18 µM) | MIC (N. gonorrheae A20143): 0.8 µg/mL (≈ 2.18 µM) | MIC (H. influenzae A22482): 0.8 µg/mL (≈ 2.18 µM) | MIC (S. pneumoniae A20759): 3.1 µg/mL (≈ 8.43 µM) | MIC (N. gonorrheae A20155): 0.8 µg/mL (≈ 2.18 µM) | MIC (H. influenzae A20177): 0.8 µg/mL (≈ 2.18 µM) | MIC (S. pneumoniae Type II): 0.8 µg/mL (≈ 2.18 µM) | MIC (N. meningitidis A21497): 0.8 µg/mL (≈ 2.18 µM) | MIC (S. pyogenes Dick): 0.2 µg/mL (≈ 0.544 µM) | MIC (N. meningitidis A20048): 0.8 µg/mL (≈ 2.18 µM) | MIC (S. pyogenes A20065): 0.2 µg/mL (≈ 0.544 µM) | MIC (N. meningitidis A21487): 0.8 µg/mL (≈ 2.18 µM) | MIC (N. gonorrheae A15112): 0.8 µg/mL (≈ 2.18 µM) | MIC (S. pyogenes A9604): 0.2 µg/mL (≈ 0.544 µM) | MIC (S. pneumoniae A15069): 3.1 µg/mL (≈ 8.43 µM) | MIC (N. meningitidis A21495): 0.8 µg/mL (≈ 2.18 µM) | MIC (H. influenzae A21523): 0.8 µg/mL (≈ 2.18 µM) | MIC (S. pyogenes A20201): 0.2 µg/mL (≈ 0.544 µM) | MIC (H. influenzae A20193): 0.8 µg/mL (≈ 2.18 µM) | MIC (H. influenzae A9833): 0.8 µg/mL (≈ 2.18 µM) | MIC (S. pyogenes s-23): 0.2 µg/mL (≈ 0.544 µM) | MIC (S. pneumoniae A9585): 0.8 µg/mL (≈ 2.18 µM) | MIC (S. pyogenes A15040): 0.2 µg/mL (≈ 0.544 µM) | MIC (H. influenzae A9729): 0.8 µg/mL (≈ 2.18 µM) | MIC (H. influenzae A22483): 0.8 µg/mL (≈ 2.18 µM)
